Read-outs that look alike come from different tables or passages of the source.
What was measured:
[1] = TNS assay, surface pKa of lipid nanoparticles; format: physicochemical
Method: In embodiments of the invention, the experimental pKa of formulated lipid nanoparticles comprising lipids in Table 1 is calculated using the 2-(p-toluidinyl)naphthalene-6-sulfonic acid (TNS) assay. The procedure for the TNS assay is described in Example 25.
The pKa of each cationic lipid was determined in lipid nanoparticles using an assay based on fluorescence of 6-(p-Toluidino)-2-naphthalenesulfonic acid sodium salt (TNS, Sigma Aldrich), which is a fluorescent probe for the conformational state of proteins5. Empty lipid nanoparticles comprising ionizable lipid in LM02 composition in distilled water at a concentration of 3.125 mM total lipid are formulated using NanoAssemblr® Spark™, and were then was characterized for LNP quality on the Zetasizer™ using a 30× dilution with 1×PBS in the low volume cuvette. Lipid nanoparticles were further diluted 4× using distilled water to 0.781 mM total lipid. TNS was prepared as a 25 μM stock solution in distilled water. Then 6.4 μL of diluted LNP samples of 0.781 mM total lipid were mixed with 10 μL of diluted TNS to a final volume of 250 μL with buffer containing 10 mM HEPES, 10 mM MES, 10 mM NH4OAc and 130 mM NaCl where the pH ranged from 3 to 9 in 0.5 pH increments.
Samples were mixed thoroughly, and the fluorescence intensity was measured at room temperature in a BioTek™ Synergy™ H1 Hybrid Multi-Mode Monochromator™ Fluorescence Microplate Reader using excitation and emission wavelengths of 321 nm and 445 nm respectively. A sigmoidal best fit analysis was applied to the fluorescence data using GraphPad Prism™ software, and the pKa was measured as the pH at half-maximal fluorescence intensity.

primary human T cells = test: EPO ELISA after EPO mRNA LNP treatment of primary human T cells; format: cell-based; conditions: Table 5; for EPO concentration (mIU/mL): EPO mRNA LNPs, 2 pg mRNA per 500,000 cells, N/P 10, 48 hours
Method: Reagents were acquired from Quantikine, Minneapolis, MN. The assay was performed as directed on the Quantikine® IVD® ELISA Human Erythropoietin Immunoassay protocol. REF DEP00 Package Insert. Briefly; primary human T cells were isolated from fresh whole blood using a negative selection protocol and activated using a triple activator. Seven days post-activation, T cells were dosed with mRNA LNPs encoding EPO at 2 pg mRNA per 500,000 cells and N/P 10. Quantikine® Human Serum Controls were used. After 48 hours of treatment with mRNA LNPs the T cells were harvested and lysed for cytosolic EPO and media supernatant was sampled for secreted EPO. Table 5 includes the data of FIG. 6 as well as the fold increase of EPO for PNI 76 and 121 versus MC3.

[2] = LNP size and PDI by dynamic light scattering; format: physicochemical
Method: After the lipid particles were made as described supra, particle size (hydrodynamic diameter of the particles) was determined by Dynamic Light Scattering (DLS) using a ZetaSizer™ Nano ZS™ (Malvern Instruments, UK). He/Ne laser tuned to 633 nm wavelength was used as the light source. Data were measured from the scattered intensity data conducted in backscattering detection mode (measurement angle=173). Measurements were an average of 10 runs of two cycles each per sample. Z-Average size was reported as the particle size, and is defined as the harmonic intensity averaged particle diameter.
(§1) Physical characteristics of lipid nanoparticle (LNP) compositions comprising compounds according to Formula (I) and that were manufactured on the NanoAssemblr® Spark and Benchtop, are shown in Tables 6 and 7 below. Size, size variation of the LNP (PDI), encapsulation efficiency, and pKa are shown. The physical characteristics of these LNP are important from a standpoint of stability, biodistribution, and cell membrane crossing. There was good encapsulation in all the formulations, with polydispersity (PDI) under 0.3. Size and PDI were measured using dynamic light scattering techniques, and nucleic acid encapsulation efficiency was calculated from a modified Quant-iT RiboGreen RNA assay.

[3] = Nucleic acid encapsulation efficiency by RiboGreen assay; format: physicochemical
Method: Messenger RNA or plasmid NAT was diluted using sodium acetate buffer to the required concentration. Lipid nucleic acid particle samples were then prepared by running both fluids using the NanoAssemblr® Spark instrument. […] The lipid nucleic acid particles made in the instrument were immediately diluted down with 48 μL Ca and Mg free 1×PBS at pH 7.4 in the aqueous output well. These nucleic acid lipid particles were immediately collected into microcentrifuge tubes containing 96 μL of Ca and Mg free 1×PBS at pH 7.4. Encapsulation efficiency was measured by a modified Ribogreen™ assay (Quanti-iT RiboGreen™ RNA assay kit, Fisher). Observed particle attributes were generally sized from 60-200 nm for mRNA, depending on lipid composition and method of production.
as §1

[4] = test system: isolated primary human T cells; test: GFP mRNA-LNP transfection of primary human T cells, flow cytometry; format: cell-based; conditions: for % eGFP +: Table 4, transfection efficiency, eGFP mRNA LNPs, CT10, N/P 8
Method: Reagents were from Stemcell Technologies unless otherwise stated. Tcells were isolated from a single donor. At 48 h following lipid particle mRNA exposure, the treated T cells were harvested by transferring the cell suspensions to pre-labeled 1.5 mL tubes and centrifuged 300×g at 4 degrees C. for 10 minutes. Supernatant was removed and the pellet resuspended in PBS. An amount of 0.5 ul of BD Horizon™ Fixable Viability Stain 575V™ (BD Biosciences), was added, and the mixture incubated in the dark for 10 minutes at RT. This stain binds to amines.
The cells were centrifuged again as before, then washed twice with 1 mL of stain buffer (BSA, BD Pharminigen), and the washed pellet was diluted in 100 μl BSA. The following antibodies were added to each tube of treated cells in 2 μl volumes: CD25, CD8, CD4, (PerCP-Cy™ 5.5 Mouse Anti Human CD25, BV786 Mouse Anti-Human CD8 Clone RPA-T8, APC-Cy™7 Mouse Anti-Human CD4 Clone SK3 (all from BD Pharmingen) with the exception of the controls: in the eGFP only sample and viability control, no antibody was added. In the single stain compensation tubes, only one antibody per tube was added.
The tubes were incubated at 4 degrees C. for 30 min, whereupon […] of stain buffer was added, and the cells were centrifuged again. Cells were washed once with 1 mL of stain buffer and spun down again as in step one. Cell pellets were resuspended in 1 mL of stain buffer and added to pre-labeled flow tubes with cell strainer caps (Corning Falcon). […]
GFP MFI was measured by flow cytometry 48 hours after LNP addition. T cells were isolated from whole blood using a negative isolation procedure (EasySep™ Human T Cell Isolation Kit, Stemcell Technologies). T cells were dosed with mRNA-LNPs 3 days after activation with 500 ng of encapsulated mRNA per 125,000 cells. The LNP were CT10 compositions with an N/P of 8. Transfection efficiency (upper graph) and MFI (lower graph) were measured by flow cytometry 48 h after LNP addition.

human T cells = test: eGFP ELISA after eGFP mRNA LNP treatment of human T cells; format: cell-based; conditions: Table 4; for Fold Change Relative to MC3: eGFP (pg) relative to MC3; for eGFP: quantity of expressed eGFP, eGFP mRNA LNPs, CT10
Method: Reagents were acquired from Abcam, Cambridge, UK unless otherwise stated. […] The assay was performed as directed by the eGFP SimpleStep ELISA® Kit protocol. Briefly; frozen human T cells, previously isolated from fresh human whole blood using a negative selection protocol, were thawed and activated using a triple activator. […] After 48 hours of treatment with mRNA LNPs the T cells were harvested and lysed for total eGFP content.
In order to expose the isolated and activated T cells (Day 0) to the formulated mRNA, 2 ug of CleanCap™ eGFP (Trilink Biotechnologies, San Diego, CA) mRNA-containing LNP was added to 500,000 T cells in 1 mL of complete T cell media, with 1 ug/mL of Recombinant Human ApoE4 (“ApoE”) (Peprotech Inc., Montreal, Canada).
Frozen human T cells, previously isolated from fresh human whole blood using a negative selection protocol, were thawed and activated using a triple activator. At 10 days post-activation, T cells were dosed with CT10 mRNA LNPs LNP comprising DLin-MC3-DMA, PNI 76, PNI 119, PNI 120, PNI 121, and PNI 122 encoding eGFP at 2 pg mRNA per 500,000 cells and N/P 10. Protein expression was measured after 48 hours by eGFP ELISA.

C56BL/6 mice = test: hEPO expression in mice after i.v. EPO mRNA LNPs; format: in vivo
Method: C56BL/6 mice were administered i.v doses of 0.5, 1 or 3 mg/Kg of recombinant human EPO-encoded mRNA LNPs containing ionizable lipids MC3, PNI 76, PNI 121 and PNI 127 using the LM02 composition at N/P 6; hEPO protein was measured using Quantikine® IVD® ELISA Human Erythropoietin Immunoassay protocol. Results for the 0.5 mg/Kg dosage are shown in the scatter plot of FIG. 7. Results for the 1 and 3 mg/Kg doses are shown in FIG. 8 as scatter plots of hEPO expression levels at 6 h (left) and 24 h (right).
In another study, 5-moU EPO mRNA encapsulated in LM02 LNP at an N/P ratio of 6 and a dose of 0.5 mg/Kg comprising a variety of […] ionizable lipids (PNI 336, PNI 534, PNI 535, PNI 342, PNI 321, PNI 532, PNI 538, PNI 541, PNI 325, PNI 328, PNI 329, PNI 539, PNI 540, PNI 127); along with MC3 as a control, were administered. hEPO protein was measured using ProteinSimple® Ella platform, and the rhEPO microfluidic cartridges provided by the manufacturer.
Blood from mice treated with hEPO mRNA LNP was analyzed using an automated ELISA platform “ELLA”, using Simplex™ antibody panel cartridges. Human-specific EPO and mouse-specific IL-5, IL-6, TNF-α, and IFN-γ were measured (reagents from Bio-techne). Briefly, 50 μL of sample reagent (diluted biological sample, quality control, or calibration point sample) were aliquoted into each sample inlet, and 1 mL of wash buffer was added into corresponding inlets on the cartridge. All immunoassay operations (including prime system, flow samples and split them into channels, sample incubation, wash, rehydrate and flow secondary antibody, wash, rehydrate and flow streptavidin dye conjugate, incubate, wash, scan) were processed automatically. Raw signal levels (relative fluorescence units, RFUs), mean signal values, standard deviation, and coefficient of variance (CV) for each glass nanoReactor (GNR) value are provided. RFU values are automatically backfit by the ELLA to produce an analyte concentration per analyte/sample using the manufacturer given calibration methodology.
Reagents were acquired from Quantikine, Minneapolis, MN. The assay was performed as directed on the Quantikine® IVD® ELISA Human Erythropoietin Immunoassay protocol REF DEP00 Package Insert. Briefly; Sera samples of 6 h, and/or 24 h post intravenous administration of 0.5, 1 or 3 mg/kg dose of EPO-encoded mRNA were analyzed for EPO expression analysis, and expressed as mIU/mL. To an EPO antibody pre-coated 96-well microplate, provided by the manufacturer, standards, appropriately diluted sera, and the Horseradish peroxidase (HRP)-conjugated rabbit anti-EPO polyclonal antibody and TMB (Tetramethylbenzidine) as the substrate were added and incubated for 20 minutes. Stop solution (Sulfuric Acid) was added to the wells and the plate was read at 450 nm and the concentration of EPO was calculated. The amount of colour generated is directly proportional to the amount of the conjugate bound to EPO antibody, which in turn is directly proportional to the amount of EPO in the specimen or standard. A standard curve was generated by plotting absorbance versus concentration of provided standards. Quantikine® Human Serum Controls (CEP 01, CEP 03) were used for internal controls.

[5] = Table 6, GFP-encoded LNPs, CT10, N/P 8
[6] = Table 7, EPO mRNA LNPs, LM02, N/P 6
[7] = Table 1, formulated lipid nanoparticles, TNS assay, read-out: Exp. pKa
[8] = Table 4, determined by TNS assay, read-out: pKa Ex.

Compound | pKa Exp. ([1]; Table 5) | EPO Fold Change Relative to MC3 (primary human T cells) | EPO concentration (mIU/mL) (primary human T cells) | Diameter (Z. ave, nm) [2, 5] [nm] | Polydispersity Index (PDI) [2, 5] | Diameter (Z. ave, nm) [2, 6] [nm] | Polydispersity Index (PDI) [2, 6] | Encapsulation Efficiency (%) [3, 5] [%] | Encapsulation Efficiency (%) [3, 6] [%] | pKa [1, 7] | pKa [1, 8] | pKa ([1]; Table 5, read-out: pKa Exp.) | pKa ([1]; Table 8, read-out: Exp.pKa) | transfection efficiency compared with MC3 ([4]; FIG. 1, eGFP mRNA LNP, CT10, N/P 10, 48 hours after treatment) | % eGFP + [4] [%] | Fold Change Relative to MC3 (human T cells) | eGFP (human T cells) [pg] | hEPO protein level compared with MC3 (C56BL/6 mice; FIG. 9, 5-moU EPO mRNA, LM02, N/P 6, 0.5 mg/Kg, 6 h) | protein expression in vivo compared with MC3 (C56BL/6 mice; summary, Table 7 and Figures)
CCCCC/C=C\C/C=C\CCCCCCCCC(CCCCCCCC/C=C\C/C=C\CCCCC)OC(=O)CCCN(C)C [MC3, DLin-MC3-DMA, reference compound] | 5.99 | 1.0 | 545.2 | 77.2 | 0.11 | 65.1 | 0.04 | 88.6 | 98.8 |  |  |  |  |  |  |  |  |  | 
CCCCCCCCCCCCCC(=O)O[C@H]1COC([C@@H](COC(=O)CCCN(C)C)OC(=O)CCCCCCCCCCCCC)[C@@H]1OC(=O)CCCCCCCCCCCCC (stereo partly drawn) [PNI 76] |  | 0.93 | 507.3 |  |  | 83.1 | 0.16 |  | 88.9 | 6.42 | 6.42 | 6.42 | 6.4 | equal transfection efficiency as MC3 | 62.35 | 1.095 | 1502.0 |  | 
CCCCC/C=C\C/C=C\CCCCCCCC(=O)O[C@@H]1[C@@H](OC(=O)CCCCCCC/C=C\C/C=C\CCCCC)CO[C@@H]1COC(=O)CC1CCCCN1C (mixture of isomers) [PNI 540] |  |  |  | 60.6 | 0.08 | 65.7 | 0.05 | 93.5 | 88.1 | 5.6 |  |  | 5.6 |  |  |  |  | compare well to MC3 | equivalent to MC3
CCCCCCCCCCCCCC(=O)O[C@@H]1[C@@H](OC(=O)CCCCCCCCCCCCC)CO[C@@H]1COC(=O)CCCN(C)C [PNI] |  |  |  |  |  |  |  |  |  |  | 7.48 |  |  |  |  | 0.589 | 807.0 |  | 
CCCCC/C=C\C/C=C\CCCCCCCCC(CCCCCCCC/C=C\C/C=C\CCCCC)OC(=O)CCCN(C)C [MC 3, DLin-MC3-DMA, reference compound] |  |  |  |  |  |  |  |  |  |  | 5.99 |  |  |  | 58.95 | 1 | 1370.0 |  | 

Reference: patent US12636368B2, “Ionizable lipids for nucleic acid delivery” (Global Life Sciences Solutions Canada ULC, priority 2019, dated 2026)
